Laboratory results published in ChEMBL document CHEMBL1201862, “PubChem BioAssay data set” (2004).
Values belong to the compound of their own block, whether it stands above or below them. Calls of active or inactive are those of the source.

Assays:
Mucolipin-3 = target: T1, Mucolipin-3 (Homo sapiens, UniProt Q8TDD5); test: Fluorescence counterscreen assay for […] agonists: dose response cell-based high-throughput screening assay to identify agonists of the transient receptor potential channel ML3 (TRPML3). [Related pubchem assays: 1424, 1448 ]; format: functional
T1 sequence (Q8TDD5 whole entry): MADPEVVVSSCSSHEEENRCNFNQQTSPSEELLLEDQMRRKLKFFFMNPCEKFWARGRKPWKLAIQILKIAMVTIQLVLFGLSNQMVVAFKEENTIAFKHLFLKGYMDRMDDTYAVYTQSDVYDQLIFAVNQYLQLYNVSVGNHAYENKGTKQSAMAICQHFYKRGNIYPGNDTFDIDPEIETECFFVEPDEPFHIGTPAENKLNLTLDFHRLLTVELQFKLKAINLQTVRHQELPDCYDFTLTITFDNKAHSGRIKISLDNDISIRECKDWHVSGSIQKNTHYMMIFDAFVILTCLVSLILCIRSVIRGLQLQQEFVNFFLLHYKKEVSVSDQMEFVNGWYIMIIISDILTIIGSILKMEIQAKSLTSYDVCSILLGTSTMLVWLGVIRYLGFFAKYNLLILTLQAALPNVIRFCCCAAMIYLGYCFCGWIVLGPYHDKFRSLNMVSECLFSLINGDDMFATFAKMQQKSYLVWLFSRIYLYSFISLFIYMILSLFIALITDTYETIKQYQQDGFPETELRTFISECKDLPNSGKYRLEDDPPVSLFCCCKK

Ion channel NompC = Ion channel NompC (Danio rerio, UniProt Q7T1G6); test: Dose response cell-based high-throughput screening assay for agonists of the transient receptor potential channel N1 (TRPN1). [Related pubchem assays (depositor defined):AID1424, AID1448]; format: functional
[1] = target: Heat shock protein HSP 90-alpha (Homo sapiens, UniProt P07900); format: functional, organism-based
[2] = target: T2, Short transient receptor potential channel 4 (Mus musculus, UniProt Q9QUQ5); test: potentiation of DAMGO-evoked TRPC4 calcium signal – cell-based, HEK293 TRPC4/mu-opioid, Fluo-4 calcium, EC20 DAMGO, dose response (AID 434941); format: functional
T2 sequence (Q9QUQ5 whole entry): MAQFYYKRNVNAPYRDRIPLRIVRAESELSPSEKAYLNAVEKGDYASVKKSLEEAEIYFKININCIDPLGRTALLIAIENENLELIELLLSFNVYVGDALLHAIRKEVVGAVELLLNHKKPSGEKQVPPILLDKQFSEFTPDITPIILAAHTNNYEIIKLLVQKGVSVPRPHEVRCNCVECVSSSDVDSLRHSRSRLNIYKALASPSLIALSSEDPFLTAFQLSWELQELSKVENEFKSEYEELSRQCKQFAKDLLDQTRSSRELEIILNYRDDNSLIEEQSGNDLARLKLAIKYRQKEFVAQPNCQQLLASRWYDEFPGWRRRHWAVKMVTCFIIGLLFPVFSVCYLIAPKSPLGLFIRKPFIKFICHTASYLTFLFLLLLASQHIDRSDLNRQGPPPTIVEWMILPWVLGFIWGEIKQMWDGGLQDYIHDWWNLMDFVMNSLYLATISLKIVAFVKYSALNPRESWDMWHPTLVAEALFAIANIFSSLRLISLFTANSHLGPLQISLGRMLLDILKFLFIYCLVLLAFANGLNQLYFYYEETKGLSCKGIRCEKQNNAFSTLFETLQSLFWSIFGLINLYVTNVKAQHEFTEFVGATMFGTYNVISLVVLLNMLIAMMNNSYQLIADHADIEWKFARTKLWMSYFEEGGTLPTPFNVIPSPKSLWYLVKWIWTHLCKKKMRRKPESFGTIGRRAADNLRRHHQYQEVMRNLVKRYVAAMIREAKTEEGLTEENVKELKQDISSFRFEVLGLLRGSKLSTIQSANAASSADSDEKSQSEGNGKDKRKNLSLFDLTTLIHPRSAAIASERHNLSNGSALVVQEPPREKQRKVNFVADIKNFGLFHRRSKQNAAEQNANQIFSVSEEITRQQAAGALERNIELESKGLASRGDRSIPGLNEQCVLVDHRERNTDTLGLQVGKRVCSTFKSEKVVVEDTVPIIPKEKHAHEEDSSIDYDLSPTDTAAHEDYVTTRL

[3] = cAMP pathway inhibition in counterscreen cell line – TR-FRET cAMP detection, counter-screen for MC4R biased antagonist project, dose response (AID 602305); format: functional, cell-based;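 further: U2OS cells stimulated with forskolin near its EC80 as the cAMP inducer; potency is for inhibition of forskolin-stimulated cAMP signaling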
[4] = Luminescence Cell-Based Dose Retest to Confirm Inhibitors of Cancer Stem Cells. [Related pubchem assays (depositor defined):AID2717, AID2721]; format: functional; details: Homo sapiens
Melanocortin receptor 4 = Melanocortin receptor 4 (Homo sapiens, UniProt P32245); test: inhibitors of MC4R cAMP signaling – cell-based, TR-FRET, biased antagonists, dose response (AID 602298); format: functional;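 further: antagonist potency against agonist-stimulated cAMP production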
Coagulation factor XII = target: T3, Coagulation factor XII (Homo sapiens, UniProt P00748); test: activated coagulation factor XII inhibitor potency, concentration-effect curve, cell-free (AID 716); format: functional
T3 sequence (P00748 whole entry): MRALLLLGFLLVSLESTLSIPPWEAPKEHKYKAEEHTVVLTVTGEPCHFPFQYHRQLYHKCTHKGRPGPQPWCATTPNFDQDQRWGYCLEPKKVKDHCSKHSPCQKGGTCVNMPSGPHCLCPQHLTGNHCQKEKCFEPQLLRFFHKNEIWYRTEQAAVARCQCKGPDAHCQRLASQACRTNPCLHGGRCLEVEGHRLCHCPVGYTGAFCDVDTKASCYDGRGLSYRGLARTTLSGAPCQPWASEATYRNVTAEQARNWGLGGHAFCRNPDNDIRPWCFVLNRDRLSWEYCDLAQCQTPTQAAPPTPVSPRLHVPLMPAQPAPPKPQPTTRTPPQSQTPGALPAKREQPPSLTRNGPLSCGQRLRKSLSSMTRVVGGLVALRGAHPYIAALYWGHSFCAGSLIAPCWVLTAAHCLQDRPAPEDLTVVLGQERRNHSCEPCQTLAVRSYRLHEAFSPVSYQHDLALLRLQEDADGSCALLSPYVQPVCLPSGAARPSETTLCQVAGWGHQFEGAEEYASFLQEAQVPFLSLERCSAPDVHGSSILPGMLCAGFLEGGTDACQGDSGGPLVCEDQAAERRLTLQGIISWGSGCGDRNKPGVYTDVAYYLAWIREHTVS

[5] = target: Protein phosphatase methylesterase 1 (Homo sapiens, UniProt Q9Y570); test: inhibition of PME-1 probe labeling – gel-based ABPP, IC50, set 1, late-stage follow-up (AID 463130); format: functional
X-box-binding protein 1 = X-box-binding protein 1 (Homo sapiens, UniProt P17861); format: functional, Cricetulus griseus;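 further: confirmatory dose-response counter-screen serving a CHOP assay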
[6] = target: DNA damage-inducible transcript 3 protein (Mus musculus, UniProt P35639); format: functional, Cricetulus griseus
[7] = target: T4, Kappa-type opioid receptor (Homo sapiens, UniProt P41145); test: SAR analysis of Antagonists of the Kappa Opioid Receptor (KOR) using an Image-Based Assay - Set 3. [Related pubchem assays (depositor defined):AID1777, AID1785]; format: functional
[8] = target: Delta-type opioid receptor (Homo sapiens, UniProt P41143); test: SAR Analysis of Antagonists of the DOR Receptor using an Image-Based Assay - Set 3. [Related pubchem assays (depositor defined):AID1777, AID1785]; format: functional;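 further: U2OS cells expressing DOR1 and beta-arrestin GFP stimulated with 100 nM SNC80; imaging of GFP-tagged beta-arrestin moving into spots after receptor activation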
Mu-type opioid receptor = Mu-type opioid receptor (Homo sapiens, UniProt P35372); test: SAR Analysis of Antagonists of the MOR Receptor using an Image-Based Assay - Set 3. [Related pubchem assays (depositor defined):AID1777, AID1785, AID1786, AID1966, AID2133, AID2136, AID2284, AID2285, AID2420]; format: functional
[9] = target: T4, Kappa-type opioid receptor; test: SAR analysis of small molecule antagonists of the kappa opioid receptor via a luminescent beta-arrestin assay - Set 3. [Related pubchem assays (depositor defined):AID1777, AID1778, AID1785, AID1786, AID1966, AID2133, AID2136, AID2285, AID2495]; format: functional
Hexokinase = Hexokinase (Trypanosoma brucei, UniProt Q38C41); test: Confirmation assay for inhibitors of Trypanosoma brucei hexokinase 1-Analogue-first series. [Related pubchem assays (depositor defined):AID1430, AID1632, AID2516, AID2560, AID2579, AID2600, AID449725, AID492951]; format: functional
[10] = target: T5, G-protein coupled receptor 35 (Homo sapiens, UniProt Q9HC97); test: SAR analysis of Antagonists of the GPR35 Receptor using an Image-Based Assay - Set 4. [Related pubchem assays (depositor defined):[…]]; format: functional
Cannabinoid receptor 2 [11] = target: T6, Cannabinoid receptor 2 (Homo sapiens, UniProt P34972); test: SAR analysis of agonists of the Cannabinoid Receptor 2 using an Image-Based Assay - Set 2. [Related pubchem assays (depositor defined):AID1961, AID1965]; format: functional
Cannabinoid receptor 1 [12] = target: T7, Cannabinoid receptor 1 (Homo sapiens, UniProt P21554); test: SAR analysis of agonists of the Cannabinoid Receptor 1 using an Image-Based Assay - Set 3. [Related pubchem assays (depositor defined):AID1961, AID1965]; format: functional
[13] = target: G-protein coupled receptor 55 (Homo sapiens, UniProt Q9Y2T6); test: SAR analysis of selective Agonists of GPR55 using an Image-Based Assay - Set 2. [Related pubchem assays (depositor defined):AID1961, AID1965]; format: functional
[14] = target: T5, G-protein coupled receptor 35; test: SAR analysis of Agonists of the GPR35 Receptor using an Image-Based Assay - Set 3. [Related pubchem assays (depositor defined):AID1961, AID1965]; format: functional
Cannabinoid receptor 1 [15] = target: T7, Cannabinoid receptor 1; test: SAR analysis of antagonists of the Cannabinoid Receptor 1 using an Image-Based Assay - Set 3. [Related pubchem assays (depositor defined):AID1961, AID1965]; format: functional
Cannabinoid receptor 2 [16] = target: T6, Cannabinoid receptor 2; test: SAR analysis of antagonists of the Cannabinoid Receptor 2 using an Image-Based Assay - Set 2. [Related pubchem assays (depositor defined):AID1961, AID1965]; format: functional
[17] = target: T4, Kappa-type opioid receptor; test: SAR analysis of small molecule antagonists of the kappa opioid receptor via a luminescent beta-arrestin assay - Set 4. [Related pubchem assays (depositor defined):AID1777, AID1778, AID1785, AID1786, AID1966, AID2133, AID2136, AID2285]; format: functional
[18] = target: T4, Kappa-type opioid receptor; test: SAR analysis of Antagonists of the Kappa Opioid Receptor (KOR) using an Image-Based Assay - Set 4. [Related pubchem assays (depositor defined):AID1777, AID1785]; format: functional
[19] = target: T4, Kappa-type opioid receptor; test: SAR analysis of small molecule antagonists of the kappa opioid receptor via a luminescent beta-arrestin assay - Set 6. [Related pubchem assays (depositor defined):AID1777, AID1778, AID1785, AID1786, AID1966, AID2133, AID2136, AID2285]; format: functional
[20] = target: Nucleotide-binding oligomerization domain-containing protein 2 (Homo sapiens, UniProt Q9HC29); test: inhibition of NOD2-driven NF-kB reporter – cell-based, luminescence, uHTS, HEK293 (AID 1566); format: functional
HEK293 [21] = test: cells; format: functional, cell-based; details: Homo sapiens
HEK293 [22] = test: cells; format: functional, cell-based; details: Homo sapiens; remark: listed apart in the source
HEK293 [23] = test: inhibition of NOD1-driven NF-kB reporter – cell-based, luminescence, uHTS, primary screen (AID 1578); format: functional; details: Homo sapiens
HEK293 [24] = test: NOD2 signaling inhibitors in MDP-stimulated cells, cell-based, uHTS, luminescence (AID 2001); format: functional; details: Homo sapiens

T4 sequence (P41145 whole entry): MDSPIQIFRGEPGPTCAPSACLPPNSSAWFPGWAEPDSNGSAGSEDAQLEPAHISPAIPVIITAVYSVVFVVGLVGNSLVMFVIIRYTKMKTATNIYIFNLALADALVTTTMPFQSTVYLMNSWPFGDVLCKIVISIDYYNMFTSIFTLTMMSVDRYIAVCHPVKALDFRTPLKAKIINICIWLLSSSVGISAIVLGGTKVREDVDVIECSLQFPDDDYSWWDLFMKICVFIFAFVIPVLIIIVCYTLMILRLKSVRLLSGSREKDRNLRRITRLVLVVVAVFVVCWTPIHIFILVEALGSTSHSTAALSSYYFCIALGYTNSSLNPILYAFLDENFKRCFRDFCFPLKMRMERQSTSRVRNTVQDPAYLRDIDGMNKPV
T7 sequence (P21554 whole entry): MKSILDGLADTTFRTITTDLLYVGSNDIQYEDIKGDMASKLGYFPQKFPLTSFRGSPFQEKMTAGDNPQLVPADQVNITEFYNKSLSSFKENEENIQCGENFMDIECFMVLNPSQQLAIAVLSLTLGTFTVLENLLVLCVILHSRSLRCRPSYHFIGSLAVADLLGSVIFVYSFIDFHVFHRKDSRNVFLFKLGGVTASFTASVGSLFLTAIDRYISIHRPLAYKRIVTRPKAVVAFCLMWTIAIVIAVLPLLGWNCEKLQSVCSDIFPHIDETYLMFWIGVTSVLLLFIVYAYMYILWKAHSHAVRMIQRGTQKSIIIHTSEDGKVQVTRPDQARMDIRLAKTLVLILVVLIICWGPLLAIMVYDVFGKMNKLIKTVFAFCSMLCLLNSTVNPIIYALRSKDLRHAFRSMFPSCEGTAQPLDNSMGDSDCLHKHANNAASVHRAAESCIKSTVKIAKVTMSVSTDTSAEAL
Sequence of Mu-type opioid receptor (P35372 whole entry): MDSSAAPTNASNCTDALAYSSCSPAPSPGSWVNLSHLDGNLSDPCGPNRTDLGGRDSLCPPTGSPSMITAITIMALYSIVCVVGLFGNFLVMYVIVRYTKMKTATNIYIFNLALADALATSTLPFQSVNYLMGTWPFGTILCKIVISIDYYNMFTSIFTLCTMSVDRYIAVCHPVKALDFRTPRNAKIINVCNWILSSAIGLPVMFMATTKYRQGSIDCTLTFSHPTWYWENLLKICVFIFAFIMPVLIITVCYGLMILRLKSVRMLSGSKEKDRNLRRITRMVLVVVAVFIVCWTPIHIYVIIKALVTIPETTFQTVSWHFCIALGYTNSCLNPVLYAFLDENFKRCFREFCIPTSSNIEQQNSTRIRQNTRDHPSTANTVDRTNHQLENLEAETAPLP
T5 sequence (Q9HC97 whole entry): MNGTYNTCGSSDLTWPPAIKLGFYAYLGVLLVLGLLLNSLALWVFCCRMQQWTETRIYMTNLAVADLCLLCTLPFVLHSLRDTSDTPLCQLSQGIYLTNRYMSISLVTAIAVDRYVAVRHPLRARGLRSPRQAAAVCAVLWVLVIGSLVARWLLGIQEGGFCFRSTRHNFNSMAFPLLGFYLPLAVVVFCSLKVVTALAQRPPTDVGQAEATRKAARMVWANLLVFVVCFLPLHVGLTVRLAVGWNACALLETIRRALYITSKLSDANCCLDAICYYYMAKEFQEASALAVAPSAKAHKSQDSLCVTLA
T6 sequence (P34972 whole entry): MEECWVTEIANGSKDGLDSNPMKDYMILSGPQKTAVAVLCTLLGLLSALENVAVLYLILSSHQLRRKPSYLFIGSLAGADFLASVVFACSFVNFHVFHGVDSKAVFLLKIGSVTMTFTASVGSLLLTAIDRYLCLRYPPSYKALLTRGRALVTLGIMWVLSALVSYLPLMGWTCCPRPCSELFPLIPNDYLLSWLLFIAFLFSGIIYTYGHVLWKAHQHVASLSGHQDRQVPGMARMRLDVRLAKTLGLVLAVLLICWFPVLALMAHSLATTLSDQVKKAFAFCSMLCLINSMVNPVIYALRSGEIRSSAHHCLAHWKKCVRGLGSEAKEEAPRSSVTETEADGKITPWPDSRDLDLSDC
Sequence of Delta-type opioid receptor (P41143 whole entry): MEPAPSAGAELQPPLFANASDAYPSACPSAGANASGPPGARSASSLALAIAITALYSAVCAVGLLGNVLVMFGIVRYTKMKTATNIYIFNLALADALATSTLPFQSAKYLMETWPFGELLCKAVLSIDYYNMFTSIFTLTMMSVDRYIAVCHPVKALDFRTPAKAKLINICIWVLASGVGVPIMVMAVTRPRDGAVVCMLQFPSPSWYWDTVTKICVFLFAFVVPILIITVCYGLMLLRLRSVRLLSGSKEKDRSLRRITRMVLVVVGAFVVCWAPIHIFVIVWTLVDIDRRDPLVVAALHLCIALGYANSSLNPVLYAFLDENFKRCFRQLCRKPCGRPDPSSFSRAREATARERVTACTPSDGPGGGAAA
Sequence of X-box-binding protein 1 (P17861 whole entry): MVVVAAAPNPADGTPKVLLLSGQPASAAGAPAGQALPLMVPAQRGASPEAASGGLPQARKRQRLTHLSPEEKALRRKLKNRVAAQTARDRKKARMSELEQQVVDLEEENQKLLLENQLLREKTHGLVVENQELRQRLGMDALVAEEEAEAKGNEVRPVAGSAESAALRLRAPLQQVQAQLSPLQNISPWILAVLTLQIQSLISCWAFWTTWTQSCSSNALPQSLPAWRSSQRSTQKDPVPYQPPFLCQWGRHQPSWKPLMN
Sequence of Protein phosphatase methylesterase 1 (Q9Y570 whole entry): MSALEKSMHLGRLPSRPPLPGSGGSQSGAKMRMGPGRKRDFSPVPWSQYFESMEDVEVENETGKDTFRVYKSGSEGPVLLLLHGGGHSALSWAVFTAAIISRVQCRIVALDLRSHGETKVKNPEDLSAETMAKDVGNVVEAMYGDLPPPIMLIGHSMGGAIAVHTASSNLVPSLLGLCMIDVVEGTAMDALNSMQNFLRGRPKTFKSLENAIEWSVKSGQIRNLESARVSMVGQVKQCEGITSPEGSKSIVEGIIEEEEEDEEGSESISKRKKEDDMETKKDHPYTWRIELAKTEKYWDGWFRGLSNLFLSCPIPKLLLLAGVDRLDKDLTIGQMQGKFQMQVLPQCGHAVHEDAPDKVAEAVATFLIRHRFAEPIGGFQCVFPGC
Sequence of Nucleotide-binding oligomerization domain-containing protein 2 (Q9HC29 whole entry, the tested form may be a part): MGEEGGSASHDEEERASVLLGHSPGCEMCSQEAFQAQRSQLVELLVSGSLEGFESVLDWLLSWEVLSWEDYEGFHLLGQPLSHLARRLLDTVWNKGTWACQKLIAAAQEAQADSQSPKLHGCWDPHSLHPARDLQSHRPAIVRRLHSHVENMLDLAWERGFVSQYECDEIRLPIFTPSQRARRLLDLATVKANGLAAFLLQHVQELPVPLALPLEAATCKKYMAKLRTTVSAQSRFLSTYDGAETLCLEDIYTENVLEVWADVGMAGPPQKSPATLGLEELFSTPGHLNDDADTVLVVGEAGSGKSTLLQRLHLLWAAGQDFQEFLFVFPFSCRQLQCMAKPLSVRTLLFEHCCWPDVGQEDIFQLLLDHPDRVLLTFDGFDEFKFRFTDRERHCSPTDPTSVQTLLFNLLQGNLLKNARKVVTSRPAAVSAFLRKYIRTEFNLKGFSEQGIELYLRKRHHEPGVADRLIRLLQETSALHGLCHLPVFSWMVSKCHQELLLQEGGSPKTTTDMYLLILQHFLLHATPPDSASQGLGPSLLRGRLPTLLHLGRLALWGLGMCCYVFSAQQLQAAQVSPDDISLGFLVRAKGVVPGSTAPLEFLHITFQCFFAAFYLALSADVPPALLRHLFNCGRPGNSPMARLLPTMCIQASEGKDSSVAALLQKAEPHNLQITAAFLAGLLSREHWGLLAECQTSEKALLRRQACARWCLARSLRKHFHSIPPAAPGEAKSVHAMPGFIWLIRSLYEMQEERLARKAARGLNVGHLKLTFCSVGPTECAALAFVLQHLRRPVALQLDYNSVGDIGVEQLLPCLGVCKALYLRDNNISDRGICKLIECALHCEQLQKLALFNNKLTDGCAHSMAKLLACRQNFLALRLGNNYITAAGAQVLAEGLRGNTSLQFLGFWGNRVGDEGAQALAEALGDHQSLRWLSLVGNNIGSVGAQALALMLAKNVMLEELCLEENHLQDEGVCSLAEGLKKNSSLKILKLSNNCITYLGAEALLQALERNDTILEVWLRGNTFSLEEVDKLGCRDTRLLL
Sequence of G-protein coupled receptor 55 (Q9Y2T6 whole entry): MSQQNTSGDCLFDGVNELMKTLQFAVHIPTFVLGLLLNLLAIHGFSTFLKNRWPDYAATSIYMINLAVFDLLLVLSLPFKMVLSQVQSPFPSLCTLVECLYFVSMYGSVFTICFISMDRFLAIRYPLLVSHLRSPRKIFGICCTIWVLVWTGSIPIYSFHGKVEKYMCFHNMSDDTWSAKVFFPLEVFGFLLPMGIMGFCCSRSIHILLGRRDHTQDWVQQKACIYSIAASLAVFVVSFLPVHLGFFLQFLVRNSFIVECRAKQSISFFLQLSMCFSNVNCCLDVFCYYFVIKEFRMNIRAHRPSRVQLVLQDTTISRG
Sequence of Melanocortin receptor 4 (P32245 whole entry): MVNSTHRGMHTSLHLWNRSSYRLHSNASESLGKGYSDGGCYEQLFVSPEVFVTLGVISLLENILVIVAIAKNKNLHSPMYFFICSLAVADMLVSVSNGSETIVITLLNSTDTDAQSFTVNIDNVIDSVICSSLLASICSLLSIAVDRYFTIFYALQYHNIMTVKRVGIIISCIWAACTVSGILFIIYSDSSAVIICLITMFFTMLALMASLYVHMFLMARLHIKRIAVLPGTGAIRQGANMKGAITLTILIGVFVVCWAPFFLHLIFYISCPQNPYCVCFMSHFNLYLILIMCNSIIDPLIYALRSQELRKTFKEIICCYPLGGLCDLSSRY
Sequence of DNA damage-inducible transcript 3 protein (P35639 whole entry): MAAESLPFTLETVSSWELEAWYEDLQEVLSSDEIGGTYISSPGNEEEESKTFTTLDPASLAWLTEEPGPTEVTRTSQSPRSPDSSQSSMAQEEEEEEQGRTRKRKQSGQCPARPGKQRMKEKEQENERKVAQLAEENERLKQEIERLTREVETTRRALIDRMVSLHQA

Structure (SMILES): CC1CCN(c2nc(Cl)nc(Nc3ccc([N+](=O)[O-])cc3)n2)CC1
AC50 [1]: 17.6 µM (active)
EC50 [2]: 3.35 µM (active)
IC50 [3]: > 64.5 µM (inactive)
AC50 [4]: 2.99 µM (active)
IC50 (Melanocortin receptor 4): > 64.5 µM (inactive)

Structure (SMILES): COC(=O)N1C(=O)[C@](c2ccsc2)(C(C)C)N1C(=O)OC
IC50 [5]: 10.7 µM (inactive)

Structure (SMILES): O=C(Nc1ccccc1O)c1c(O)nc2c(c1O)CCCC2
Absolute IC50 (XBP1) (X-box-binding protein 1): 10 µM
Absolute IC50 (CHOP) [6]: 10 µM

Structure (SMILES): CCOC(=O)c1ccncc1NC(=O)c1ccc(OC)cc1
IC50 (Hexokinase): > 25 µM (inactive)

Structure (SMILES): Cc1c(/C=N/NC(=O)c2ccccc2O)c2ccccn2c1C(=O)c1ccc(F)cc1
EC50 [20]: 6.46 µM (active)
IC50 (HEK293 [21]): 10.9 µM (active)
IC50 (HEK293 [22]): 11.5 µM (active)
EC50 (HEK293 [23]): 10.3 µM (active)
IC50 (HEK293 [24]): 6.49 µM (active)

The remaining lines, values ahead:

EC50 (Mucolipin-3): > 29.9 µM (not active)
EC50 (Ion channel NompC): > 29.9 µM (inactive)
Structure (SMILES): O=C(Nc1ccccc1)Nc1ccc2snnc2c1

IC50 (Coagulation factor XII): > 50 µM (inactive)
Structure (SMILES): COC(=O)c1ccccc1NC(=O)N1CCN(C(=O)c2ccco2)CC1

IC50 [7]: > 32 µM (inactive)
IC50 [8]: > 32 µM (inactive)
IC50 (Mu-type opioid receptor): 3.98 µM (active)
IC50 [9]: > 20 µM (inactive)
Structure (SMILES): Cc1ccc(Cl)cc1N1CCN(CCNC(=O)Cn2c(=O)c3cccn3c3cccnc32)CC1

IC50 [10]: > 32 µM (inactive)
EC50 (Cannabinoid receptor 2 [11]): > 32 µM (inactive)
EC50 (Cannabinoid receptor 1 [12]): > 32 µM (inactive)
EC50 [13]: > 32 µM (inactive)
EC50 [14]: > 32 µM (inactive)
IC50 (Cannabinoid receptor 1 [15]): 9.36 µM (active)
IC50 (Cannabinoid receptor 2 [16]): > 32 µM (inactive)
Structure (SMILES): CCN(CC)S(=O)(=O)c1ccc(N2CCCCC2)c(C(=O)N2CCN(c3ccccc3)CC2)c1

IC50 [17]: 0.558 µM (active)
IC50 [8]: > 32 µM (inactive)
IC50 [18]: 0.137 µM (active)
IC50 [19]: 0.71 µM (active)
IC50 (Mu-type opioid receptor): 3.31 µM (active)
Structure (SMILES): Cc1ccc(S(=O)(=O)NCc2ccc(C(=O)NCCN(Cc3ccccc3)C3CCCC3)cc2)cc1
